Assays:
TBEV (strain Hypr) = test: microbe, parasite or virus in culture; format: cell-based, tick-borne encephalitis virus; conditions: for EC50: Tick-borne encephalitis virus, 48 h, read-out: EC50, anti-TBEV activity
in vitro = conditions: pig
SARS-CoV-2 [1] = test: Anti-SARS-CoV-2 immunofluorescence assay (IFA) in VERO-E6 cells; format: cell-based; conditions: Severe acute respiratory syndrome coronavirus 2, Vero C1008, 72 h, MOI 0.02, 3 days, read-out: EC50, inhibition of SARS-CoV-2 (nucleoprotein IFA)
SARS-CoV-2 [2] = test: Anti-SARS-CoV-2 immunofluorescence assay (IFA) in Caco-2 cells; format: cell-based; conditions: Severe acute respiratory syndrome coronavirus 2, MOI 0.002, read-out: EC50, inhibition of SARS-CoV-2 replication (nucleoprotein IFA)
SARS-CoV-2 [3] = test: Anti-SARS-CoV-2 cytopathic effect (CPE)-based assay in Calu-3 cells; format: cell-based; conditions: Severe acute respiratory syndrome coronavirus 2, 72 h, MOI 0.04, 3 days, XTT, read-out: EC50, inhibition of virus-induced CPE
SARS-CoV-2 [4] = test: SARS-CoV-2 yield reduction assay (plaque assay) in VERO-E6 cells; format: cell-based; conditions: MOI 0.04, 3 days
[5] = target: T1, SARS-CoV-2 RdRp (nsp7, nsp8 and nsp12) (Severe acute respiratory syndrome coronavirus 2, UniProt P0DTD1); format: biochemical
T1 construct: except for the full length nsp12 protein, which was expressed in insect cells; His6 (C); made in house; host or cells: nsp12 in insect cells; nsp7 and nsp8 in E. coli BL-21 CodonPlus (DE3)-RIL

JEV RdRp = target: T2, JEV RdRp (Japanese encephalitis virus, UniProt P32886); test: biochemical
T2 construct: NS5 proteins and SARS-CoV-2 nsp12, nsp8 and nsp7 were expressed with appropriate purification and folding tags; His6-TEV site (N); made in house; host or cells: E. coli BL-21 CodonPlus (DE3)-RIL

NTAV RdRp = NTAV RdRp (Ntaya virus, UniProt K0BRZ6); test: Radioactive polymerase assay (IC50), NTAV RdRp; format: biochemical; conditions: radioactively labeled elongation products, [α-32P]-ATP, hairpin RNA
TBEV RdRp = TBEV RdRp (Tick-borne encephalitis virus, UniProt Q01299); test: biochemical
WNV RdRp = target: T3, WNV RdRp (West Nile virus, UniProt Q9Q6P4); test: biochemical
T3 construct: NS5 proteins and SARS-CoV-2 nsp12, nsp8 and nsp7 were expressed with appropriate purification and folding tags; His6-TEV site (N); made in house; host or cells: E. coli BL-21 CodonPlus (DE3)-RIL

YFV RdRp = YFV RdRp (Yellow fever virus, UniProt P03314); test: biochemical
ZIKV RdRp = ZIKV RdRp (Zika virus, UniProt A0A1L5YKZ2); test: Radioactive polymerase assay (IC50), ZIKV RdRp; format: biochemical; conditions: radioactively labeled elongation products, [α-32P]-ATP, hairpin RNA
SARS-CoV-2 RdRp = target: T4, SARS-CoV-2 RdRp (Severe acute respiratory syndrome coronavirus 2, UniProt P0DTD1); test: biochemical
T4 construct: except for the full length nsp12 protein, which was expressed in insect cells; His6 (C); made in house; host or cells: nsp12 in insect cells; nsp7 and nsp8 in E. coli BL-21 CodonPlus (DE3)-RIL

SARS-CoV-2 [6] = format: cell-based
flaviviral RdRp = format: biochemical, Flaviviridae (JEV, NTAV, TBEV, YFV, ZIKV)
[7] = Cytotoxicity (XTT) in Caco-2 cells; conditions: human
Caco-2 cells = test: Cytotoxicity (XTT) in Caco-2 cells
[8] = Cytotoxicity (XTT) in Calu-3 cells; conditions: human
Calu-3 cells = test: Cytotoxicity (XTT) in Calu-3 cells
VERO-E6 cells = test: Cytotoxicity (XTT) in VERO-E6 cells; conditions: 3 days

Sequence of YFV RdRp (P03314 2507-3411 limits assumed): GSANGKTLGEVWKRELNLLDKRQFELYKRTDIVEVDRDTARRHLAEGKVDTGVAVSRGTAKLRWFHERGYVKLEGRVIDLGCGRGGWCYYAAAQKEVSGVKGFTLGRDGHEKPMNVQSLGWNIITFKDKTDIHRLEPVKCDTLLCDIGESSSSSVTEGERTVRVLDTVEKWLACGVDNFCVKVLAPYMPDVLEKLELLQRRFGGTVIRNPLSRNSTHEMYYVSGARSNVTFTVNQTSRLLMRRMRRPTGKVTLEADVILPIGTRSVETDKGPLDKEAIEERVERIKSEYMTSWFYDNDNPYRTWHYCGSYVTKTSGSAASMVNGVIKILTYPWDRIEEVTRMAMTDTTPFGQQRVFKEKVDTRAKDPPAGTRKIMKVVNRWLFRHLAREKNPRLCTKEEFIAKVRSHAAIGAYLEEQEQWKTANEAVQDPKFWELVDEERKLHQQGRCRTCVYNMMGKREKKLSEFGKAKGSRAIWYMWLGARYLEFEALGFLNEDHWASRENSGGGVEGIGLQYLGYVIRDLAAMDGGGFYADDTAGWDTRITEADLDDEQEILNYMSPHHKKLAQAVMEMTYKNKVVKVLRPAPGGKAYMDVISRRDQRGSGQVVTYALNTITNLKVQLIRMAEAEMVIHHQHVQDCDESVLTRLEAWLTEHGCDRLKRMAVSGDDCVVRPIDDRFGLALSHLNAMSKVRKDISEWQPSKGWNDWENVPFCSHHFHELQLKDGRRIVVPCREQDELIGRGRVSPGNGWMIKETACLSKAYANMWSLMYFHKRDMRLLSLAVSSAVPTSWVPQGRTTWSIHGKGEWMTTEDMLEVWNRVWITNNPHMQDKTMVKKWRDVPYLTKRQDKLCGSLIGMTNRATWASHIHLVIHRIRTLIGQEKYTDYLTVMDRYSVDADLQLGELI
T3 sequence (Q9Q6P4 2529-3433 limits assumed): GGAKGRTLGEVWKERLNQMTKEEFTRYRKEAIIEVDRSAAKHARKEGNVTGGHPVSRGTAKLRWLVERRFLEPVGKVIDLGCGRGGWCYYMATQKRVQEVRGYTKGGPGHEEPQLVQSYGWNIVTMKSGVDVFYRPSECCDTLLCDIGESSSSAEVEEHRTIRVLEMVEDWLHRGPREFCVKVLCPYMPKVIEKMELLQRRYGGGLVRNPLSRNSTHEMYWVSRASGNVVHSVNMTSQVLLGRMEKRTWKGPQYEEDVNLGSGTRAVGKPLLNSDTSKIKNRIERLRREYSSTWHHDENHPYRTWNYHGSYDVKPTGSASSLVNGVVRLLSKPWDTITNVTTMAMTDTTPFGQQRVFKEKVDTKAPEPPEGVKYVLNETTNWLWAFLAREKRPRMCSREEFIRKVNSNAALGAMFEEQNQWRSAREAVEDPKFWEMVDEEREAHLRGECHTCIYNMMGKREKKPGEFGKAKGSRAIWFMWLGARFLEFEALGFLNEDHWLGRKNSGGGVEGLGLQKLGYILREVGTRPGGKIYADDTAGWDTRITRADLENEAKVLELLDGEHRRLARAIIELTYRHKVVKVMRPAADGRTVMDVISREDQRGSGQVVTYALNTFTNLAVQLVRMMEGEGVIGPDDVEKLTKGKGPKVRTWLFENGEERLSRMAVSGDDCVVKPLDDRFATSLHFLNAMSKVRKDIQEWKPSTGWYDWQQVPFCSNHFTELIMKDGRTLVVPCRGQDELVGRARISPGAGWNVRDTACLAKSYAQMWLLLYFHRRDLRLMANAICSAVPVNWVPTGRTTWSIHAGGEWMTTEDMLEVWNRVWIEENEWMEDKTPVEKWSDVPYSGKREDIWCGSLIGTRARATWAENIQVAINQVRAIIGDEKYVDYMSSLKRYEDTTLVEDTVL
Sequence of TBEV RdRp (Q01299 2512-3414 limits assumed): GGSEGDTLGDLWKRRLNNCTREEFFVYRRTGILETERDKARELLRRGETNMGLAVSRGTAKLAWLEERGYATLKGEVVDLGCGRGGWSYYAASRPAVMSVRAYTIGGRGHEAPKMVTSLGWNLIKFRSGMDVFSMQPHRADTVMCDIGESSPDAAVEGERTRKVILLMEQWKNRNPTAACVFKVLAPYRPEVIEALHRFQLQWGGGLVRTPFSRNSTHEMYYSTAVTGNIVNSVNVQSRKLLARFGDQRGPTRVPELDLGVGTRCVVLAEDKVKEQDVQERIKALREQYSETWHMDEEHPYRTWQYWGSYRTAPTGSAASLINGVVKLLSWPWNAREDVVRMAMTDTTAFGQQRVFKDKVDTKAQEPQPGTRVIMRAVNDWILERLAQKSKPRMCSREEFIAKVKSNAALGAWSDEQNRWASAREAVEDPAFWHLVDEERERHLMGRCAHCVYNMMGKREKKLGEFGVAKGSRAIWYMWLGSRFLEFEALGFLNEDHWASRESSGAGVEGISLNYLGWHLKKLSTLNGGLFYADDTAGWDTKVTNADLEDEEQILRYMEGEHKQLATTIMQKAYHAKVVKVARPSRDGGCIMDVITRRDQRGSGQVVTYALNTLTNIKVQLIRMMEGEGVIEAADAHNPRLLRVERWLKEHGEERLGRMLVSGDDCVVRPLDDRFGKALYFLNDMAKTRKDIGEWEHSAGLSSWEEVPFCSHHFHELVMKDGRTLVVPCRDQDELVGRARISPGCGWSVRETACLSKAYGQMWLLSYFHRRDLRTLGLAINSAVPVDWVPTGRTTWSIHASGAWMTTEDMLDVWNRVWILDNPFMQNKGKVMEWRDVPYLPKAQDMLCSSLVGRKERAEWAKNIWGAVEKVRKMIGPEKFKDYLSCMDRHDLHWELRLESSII
Sequence of ZIKV RdRp (A0A1L5YKZ2 2521-3423): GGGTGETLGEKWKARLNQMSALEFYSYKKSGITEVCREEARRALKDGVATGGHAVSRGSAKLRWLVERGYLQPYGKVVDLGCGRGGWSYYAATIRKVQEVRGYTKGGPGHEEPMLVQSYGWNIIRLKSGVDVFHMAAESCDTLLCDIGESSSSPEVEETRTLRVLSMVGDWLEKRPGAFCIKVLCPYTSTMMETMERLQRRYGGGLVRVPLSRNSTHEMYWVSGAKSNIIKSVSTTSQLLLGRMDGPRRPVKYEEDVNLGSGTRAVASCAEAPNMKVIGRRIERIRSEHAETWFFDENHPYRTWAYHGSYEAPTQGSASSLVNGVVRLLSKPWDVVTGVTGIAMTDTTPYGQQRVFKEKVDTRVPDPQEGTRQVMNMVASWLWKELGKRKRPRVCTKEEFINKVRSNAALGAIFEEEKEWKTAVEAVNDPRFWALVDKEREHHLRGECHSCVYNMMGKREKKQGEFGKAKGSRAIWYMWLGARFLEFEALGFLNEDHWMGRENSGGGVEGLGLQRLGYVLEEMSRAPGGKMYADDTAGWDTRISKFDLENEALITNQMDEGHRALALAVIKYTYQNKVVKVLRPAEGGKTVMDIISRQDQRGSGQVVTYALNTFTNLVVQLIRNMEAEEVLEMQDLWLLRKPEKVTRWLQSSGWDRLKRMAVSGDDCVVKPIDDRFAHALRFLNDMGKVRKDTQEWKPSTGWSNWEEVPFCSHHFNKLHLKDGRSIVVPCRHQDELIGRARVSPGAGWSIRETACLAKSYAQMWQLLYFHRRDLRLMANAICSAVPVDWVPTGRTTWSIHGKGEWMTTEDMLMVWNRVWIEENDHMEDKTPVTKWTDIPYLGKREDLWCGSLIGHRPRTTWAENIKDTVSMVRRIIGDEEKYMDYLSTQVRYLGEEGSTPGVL
T2 sequence (P32886 2528-3432 limits assumed): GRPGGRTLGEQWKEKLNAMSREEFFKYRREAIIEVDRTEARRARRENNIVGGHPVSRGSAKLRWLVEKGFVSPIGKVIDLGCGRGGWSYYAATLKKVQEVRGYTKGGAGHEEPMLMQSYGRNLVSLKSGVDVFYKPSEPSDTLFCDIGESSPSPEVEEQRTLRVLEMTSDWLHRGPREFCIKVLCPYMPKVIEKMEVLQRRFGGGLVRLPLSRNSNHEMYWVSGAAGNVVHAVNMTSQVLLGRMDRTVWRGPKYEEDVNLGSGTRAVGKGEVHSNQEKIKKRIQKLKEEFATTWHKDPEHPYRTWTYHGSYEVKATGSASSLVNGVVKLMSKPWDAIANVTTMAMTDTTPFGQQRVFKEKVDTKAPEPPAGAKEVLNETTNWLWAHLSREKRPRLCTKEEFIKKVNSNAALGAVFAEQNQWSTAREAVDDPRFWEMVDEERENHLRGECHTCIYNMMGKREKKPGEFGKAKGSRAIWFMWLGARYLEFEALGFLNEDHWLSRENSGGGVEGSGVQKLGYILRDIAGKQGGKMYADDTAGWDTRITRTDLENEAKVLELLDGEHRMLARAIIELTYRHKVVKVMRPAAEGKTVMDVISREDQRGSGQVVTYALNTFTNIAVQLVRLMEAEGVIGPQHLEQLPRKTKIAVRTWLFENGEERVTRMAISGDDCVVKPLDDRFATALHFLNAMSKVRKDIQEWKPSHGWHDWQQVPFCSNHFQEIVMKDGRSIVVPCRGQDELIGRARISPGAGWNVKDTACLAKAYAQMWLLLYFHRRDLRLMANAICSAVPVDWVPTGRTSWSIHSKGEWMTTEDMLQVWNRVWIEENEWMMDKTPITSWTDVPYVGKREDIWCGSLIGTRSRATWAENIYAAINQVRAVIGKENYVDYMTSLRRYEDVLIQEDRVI

Q: With C[C@@]1(O)[C@H](O)[C@@H](CO)O[C@H]1n1ccc2c(N)ncnc21 [7-deaza-2′-CMA, 7-deaza-2′-C-methyladenosine, reference compound] as the compound, how does the EC50 (TBEV (strain Hypr)) read?
A: 0.43 ± 0.06 µM

Q: And the CC50 (in vitro)?
A: > 50 µM

Q: What does the source list for Cc1c(C)c2c(c3c1CC[n+]1ccc(/C=C4\Sc5ccccc5N4C)cc1-3)-c1cccc(/C=C3\Sc4ccccc4N3C)[n+]1CC2 [PR673]?
A: EC50 (SARS-CoV-2 [1]): 29 µM; EC50 (SARS-CoV-2 [2]): 17 µM; EC50 (SARS-CoV-2 [3]): 18 µM; activity compared with remdesivir in yield reduction assay (SARS-CoV-2 [4]): much less active than the COVID-19 drug remdesivir; reduction in viral plaques (SARS-CoV-2 [4]; at 50 µM): 58%; PR673 concentration at which synthesis of RNA was totally blocked [5]: above 12.5 µM; IC50 (JEV RdRp): 3.9 ± 0.4 µM; IC50 (NTAV RdRp): 3.1 ± 0.2 µM; IC50 (TBEV RdRp): 3.6 ± 0.2 µM; IC50 (WNV RdRp): 3.4 ± 0.2 µM; IC50 (YFV RdRp): 3 ± 0.1 µM; IC50 (ZIKV RdRp): 4.9 ± 0.5 µM; IC50 (SARS-CoV-2 RdRp): 4 ± 0.2 µM; anti-TBEV activity in comparison to 7-deaza-2′-CMA (TBEV (strain Hypr)): almost four-fold higher; compound concentration of complete inhibition of TBEV replication (TBEV (strain Hypr)): 0.4 µM; EC50 (TBEV (strain Hypr)): 0.11 µM; inhibition of virus replication (virus-induced CPE) in screen (SARS-CoV-2 [6]): inhibited the replication of the virus; inhibition of RNA synthesis by flaviviral RdRps (flaviviral RdRp): strong inhibition of RNA synthesis in low micromolar concentrations; CC50 (in vitro): > 50 µM; CC50 at 3 days [7]: > 50 µM; cytotoxicity at the highest used concentration (Caco-2 cells): mild cytotoxicity; CC50 at 3 days [8]: > 50 µM; cytotoxicity at the highest used concentration (Calu-3 cells): mild cytotoxicity; cell toxicity (VERO-E6 cells): no cell toxicity

Source: publication PMC8953834, “A Helquat-like Compound as a Potent Inhibitor of Flaviviral and Coronaviral Polymerases” (Molecules, 2022)
